# According to PubChem BioAssay (NCI):
#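 48-hour exposure; five concentrations; linearly interpolated endpoints. Definition used: TGI = concentration required for complete inhibition of growth.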
# Columns and labels:
# Assay in all cases: DTP human tumour cell line panel, 48 h
# MDA-N = tested on: MDA-N
# SR leukemia = tested on: SR leukemia
# NCI-H460 lung = tested on: NCI-H460 lung
# IGROV1 ovarian = tested on: IGROV1 ovarian
# MALME-3M melanoma = tested on: MALME-3M melanoma
# MDA-MB-435 = tested on: MDA-MB-435
# NCI/ADR-RES ovarian = tested on: NCI/ADR-RES ovarian
# CCRF-CEM leukemia = tested on: CCRF-CEM leukemia
# A549 NSCLC = tested on: A549 NSCLC
# OVCAR-8 ovarian = tested on: OVCAR-8 ovarian
# LOX IMVI melanoma = tested on: LOX IMVI melanoma
# SNB-19 CNS = tested on: SNB-19 CNS
# MDA-MB-231 breast = tested on: MDA-MB-231 breast
# SK-MEL-2 melanoma = tested on: SK-MEL-2 melanoma
# OVCAR-3 ovarian = tested on: OVCAR-3 ovarian
# NCI-H226 lung = tested on: NCI-H226 lung
# A498 renal = tested on: A498 renal
# HOP-62 NSCLC = tested on: HOP-62 NSCLC
# OVCAR-5 ovarian = tested on: OVCAR-5 ovarian
# NCI-H23 lung = tested on: NCI-H23 lung
# KM12 colon = tested on: KM12 colon
# SF-539 CNS = tested on: SF-539 CNS
# MCF7 breast = tested on: MCF7 breast
# UACC-257 melanoma = tested on: UACC-257 melanoma
# HOP-92 NSCLC = tested on: HOP-92 NSCLC
# EKVX NSCLC = tested on: EKVX NSCLC
# PC-3 prostate = tested on: PC-3 prostate
# UO-31 renal = tested on: UO-31 renal
# COLO 205 colon = tested on: COLO 205 colon
# M14 melanoma = tested on: M14 melanoma
# MOLT-4 leukemia = tested on: MOLT-4 leukemia
# SF-295 CNS = tested on: SF-295 CNS
# CAKI-1 renal = tested on: CAKI-1 renal
# HT29 colon = tested on: HT29 colon
# SK-OV-3 ovarian = tested on: SK-OV-3 ovarian
# SK-MEL-5 melanoma = tested on: SK-MEL-5 melanoma
# K-562 leukemia = tested on: K-562 leukemia
# T-47D breast = tested on: T-47D breast
# SW-620 colon = tested on: SW-620 colon
# RPMI-8226 leukemia = tested on: RPMI-8226 leukemia
# SNB-75 CNS = tested on: SNB-75 CNS
# NCI-H522 lung = tested on: NCI-H522 lung
# HL-60(TB) leukemia = tested on: HL-60(TB) leukemia
# RXF 393 renal = tested on: RXF 393 renal
# ACHN renal = tested on: ACHN renal
# HCT-15 colon = tested on: HCT-15 colon
# TK-10 renal = tested on: TK-10 renal
# OVCAR-4 ovarian = tested on: OVCAR-4 ovarian
# HCC-2998 colon = tested on: HCC-2998 colon
# 786-0 renal = tested on: 786-0 renal
# U251 CNS = tested on: U251 CNS
# DU-145 prostate = tested on: DU-145 prostate
# SK-MEL-28 melanoma = tested on: SK-MEL-28 melanoma
# SF-268 CNS = tested on: SF-268 CNS
# UACC-62 melanoma = tested on: UACC-62 melanoma
# HS 578T breast = tested on: HS 578T breast
# BT-549 breast = tested on: BT-549 breast
# HCT-116 colon = tested on: HCT-116 colon
# SN12C renal = tested on: SN12C renal
structure (smiles),measurement,setting,value
COc1ccc([C@@]23CCC(=O)C[C@@H]2N(C)CC3)cc1OC,TGI,MDA-N,> 100 µM
same,TGI,SR leukemia,> 100 µM
same,TGI,NCI-H460 lung,> 100 µM
same,TGI,IGROV1 ovarian,> 100 µM
same,TGI,MALME-3M melanoma,> 100 µM
same,TGI,MDA-MB-435,> 100 µM
same,TGI,NCI/ADR-RES ovarian,> 100 µM
same,TGI,CCRF-CEM leukemia,> 100 µM
same,TGI,A549 NSCLC,> 100 µM
same,TGI,OVCAR-8 ovarian,> 100 µM
same,TGI,LOX IMVI melanoma,> 100 µM
same,TGI,SNB-19 CNS,> 100 µM
same,TGI,MDA-MB-231 breast,> 100 µM
same,TGI,SK-MEL-2 melanoma,> 100 µM
same,TGI,OVCAR-3 ovarian,> 100 µM
same,TGI,NCI-H226 lung,> 100 µM
same,TGI,A498 renal,> 100 µM
same,TGI,HOP-62 NSCLC,> 100 µM
same,TGI,OVCAR-5 ovarian,> 100 µM
same,TGI,NCI-H23 lung,> 100 µM
same,TGI,KM12 colon,> 100 µM
same,TGI,SF-539 CNS,> 100 µM
same,TGI,MCF7 breast,> 100 µM
same,TGI,UACC-257 melanoma,> 100 µM
same,TGI,HOP-92 NSCLC,> 100 µM
same,TGI,EKVX NSCLC,> 100 µM
same,TGI,PC-3 prostate,> 100 µM
same,TGI,UO-31 renal,> 100 µM
same,TGI,COLO 205 colon,> 100 µM
same,TGI,M14 melanoma,> 100 µM
same,TGI,MOLT-4 leukemia,> 100 µM
same,TGI,SF-295 CNS,> 100 µM
same,TGI,CAKI-1 renal,> 100 µM
same,TGI,HT29 colon,> 100 µM
same,TGI,SK-OV-3 ovarian,> 100 µM
same,TGI,SK-MEL-5 melanoma,> 100 µM
same,TGI,K-562 leukemia,> 100 µM
same,TGI,T-47D breast,> 100 µM
same,TGI,SW-620 colon,> 100 µM
same,TGI,RPMI-8226 leukemia,> 100 µM
same,TGI,SNB-75 CNS,> 100 µM
same,TGI,NCI-H522 lung,> 100 µM
same,TGI,HL-60(TB) leukemia,> 100 µM
same,TGI,RXF 393 renal,> 100 µM
same,TGI,ACHN renal,> 100 µM
same,TGI,HCT-15 colon,> 100 µM
same,TGI,TK-10 renal,> 100 µM
same,TGI,OVCAR-4 ovarian,> 100 µM
same,TGI,HCC-2998 colon,> 100 µM
same,TGI,786-0 renal,> 100 µM
same,TGI,U251 CNS,> 100 µM
same,TGI,DU-145 prostate,> 100 µM
same,TGI,SK-MEL-28 melanoma,> 100 µM
same,TGI,SF-268 CNS,> 100 µM
same,TGI,UACC-62 melanoma,> 100 µM
same,TGI,HS 578T breast,> 100 µM
C=CC1(CCC(Br)C(C)(C)Cl)CO1 (stereo not given),TGI,MDA-N,> 10 µM
same,TGI,NCI-H460 lung,> 10 µM
same,TGI,IGROV1 ovarian,> 10 µM
same,TGI,MALME-3M melanoma,> 10 µM
same,TGI,MDA-MB-435,> 10 µM
same,TGI,NCI/ADR-RES ovarian,> 10 µM
same,TGI,CCRF-CEM leukemia,> 10 µM
same,TGI,A549 NSCLC,> 10 µM
same,TGI,OVCAR-8 ovarian,> 10 µM
same,TGI,SNB-19 CNS,> 10 µM
same,TGI,MDA-MB-231 breast,> 10 µM
same,TGI,SK-MEL-2 melanoma,> 10 µM
same,TGI,OVCAR-3 ovarian,> 10 µM
same,TGI,A498 renal,> 10 µM
same,TGI,HOP-62 NSCLC,> 10 µM
same,TGI,OVCAR-5 ovarian,> 10 µM
same,TGI,KM12 colon,> 10 µM
same,TGI,SF-539 CNS,> 10 µM
same,TGI,MCF7 breast,> 10 µM
same,TGI,HOP-92 NSCLC,> 10 µM
same,TGI,EKVX NSCLC,> 10 µM
same,TGI,PC-3 prostate,> 10 µM
same,TGI,UO-31 renal,> 10 µM
same,TGI,COLO 205 colon,> 10 µM
same,TGI,M14 melanoma,> 10 µM
same,TGI,MOLT-4 leukemia,> 10 µM
same,TGI,SF-295 CNS,> 10 µM
same,TGI,CAKI-1 renal,> 10 µM
same,TGI,HT29 colon,> 10 µM
same,TGI,SK-OV-3 ovarian,> 10 µM
same,TGI,SK-MEL-5 melanoma,> 10 µM
same,TGI,K-562 leukemia,> 10 µM
same,TGI,T-47D breast,> 10 µM
same,TGI,SW-620 colon,> 10 µM
same,TGI,RPMI-8226 leukemia,> 10 µM
same,TGI,SNB-75 CNS,> 10 µM
same,TGI,NCI-H522 lung,> 10 µM
same,TGI,ACHN renal,> 10 µM
same,TGI,HCT-15 colon,> 10 µM
same,TGI,TK-10 renal,> 10 µM
same,TGI,BT-549 breast,> 10 µM
same,TGI,HCC-2998 colon,> 10 µM
same,TGI,786-0 renal,> 10 µM
same,TGI,U251 CNS,> 10 µM
same,TGI,HCT-116 colon,> 10 µM
same,TGI,DU-145 prostate,> 10 µM
same,TGI,SK-MEL-28 melanoma,> 10 µM
same,TGI,SN12C renal,> 10 µM
same,TGI,SF-268 CNS,> 10 µM
